Measured values as given in patent US20030152577A1, “Dye-bioconjugates for simultaneous optical diagnostic and therapeutic applications” (MALLINCKRODT INC., priority 2002, published 2003).

What was measured:
Design in all cases: species or system male Lewis rats
[1] = test system: Dunning R3327-H (prostate) tumor; experiment: Non-invasive in vivo fluorescence imaging of Dunning R3327-H tumor in rats; settings: 0.5 ml of 0.42 mg/ml in saline, tail vein, images at 2 and 30 minutes post administration
Source text: (§1) A non-invasive in vivo fluorescence imaging apparatus was employed to assess the efficacy of indocyanine green (ICG) in three different rat tumor cell lines of the inventive contrast agents developed for tumor detection in animal models. A LaserMax Inc. laser diode of nominal wavelength 780 nm and nominal power of 40 mW was used. The detector was a Princeton Instruments model RTE/CCD-1317-K/2 CCD camera with a Rodenstock 10 mm F2 lens (stock #542.032.002.20) attached. An 830 nm interference lens (CVI Laser Corp., part # F10-830-4-2) was mounted in front of the CCD input lens, such that only emitted fluorescent light from the contrast agent was imaged.
(§2) Three tumor cell lines, DSL 6/A (pancreatic), Dunning R3327-H (prostate), and CA20948 (pancreatic), which are rich in somatostatin (SST-2) receptors were induced into male Lewis rats by solid implant technique in the left flank area (Achilefu et al., Invest Radiology, 2000, pp. 479-485). Palpable masses were detected nine days post implant.

[2] = test system: DSL 6/A (pancreatic) tumor; experiment: Non-invasive in vivo fluorescence imaging of DSL 6/A tumor in rats; settings: 0.5 ml of 0.42 mg/ml in saline, tail vein, images at 2 and 30 minutes post administration
Source text: as §1, §2

[3] = test system: CA20948 (pancreatic) tumor, rich in somatostatin (SST-2) receptors; experiment: Non-invasive in vivo fluorescence imaging of CA20948 tumor bearing rat
Source text: as §1, §2
The peptide, octreotate, is known to target somatostatin (SST-2) receptors. Therefore, the cyano-octreotates conjugate, Cytate 1, was prepared as described in Example 4. The pancreatic acinar carcinoma, CA20948, was induced into male Lewis rats as described in Example 9.
Using the CCD camera apparatus, dye localization in the tumor was observed. […]

CC1(C)C(/C=C/C=C/C=C/C=C2\N(CCCCS(=O)(=O)O)c3ccc4ccccc4c3C2(C)C)=[N+](CCCCS(=O)(=O)[O-])c2ccc3ccccc3c21 [ICG, indocyanine green]
perfusion of the agent into the tumor [1]: slow perfusion of the agent into the tumor over time
perfusion of the agent into the tumor [2]: slow perfusion of the agent into the tumor over time
perfusion of the agent into the tumor ([3]; 0.5 ml of 0.42 mg/ml in saline, tail vein, images at 2 and 30 minutes post administration): only a slight and transient perfusion that was cleared after only 30 minutes post injection
non-specific localization into the tumor line ([3]; compared to the other two lines): no non-specific localization
